Legend:
Test in all cases: Carna kinase panel screen
Assay type in all cases: biochemical
Settings in all cases: read-out: % Inhibition ± SD
MLK1 = target: T1, MLK1 (Homo sapiens, UniProt P80192)
T1 construct: purchased Carna Biosciences
How it was run: (§1)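 Read-out is percent inhibition, plotted against compound concentration and fitted to a four-parameter logistic model to give IC50. Curves comprised 10 points, with ATP approximating Km.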

FLT1 = target: T2, FLT1 (Homo sapiens, UniProt P17948)
T2 construct: purchased Carna Biosciences
How it was run: as §1

YES = target: T3, YES (Homo sapiens, UniProt P07947)
T3 construct: purchased Carna Biosciences
How it was run: as §1

TAK1 = target: T4, TAK1 (Homo sapiens, UniProt O43318)
T4 construct: purchased Carna Biosciences
How it was run: as §1

PKCb1 = target: T5, PKCb1 (Homo sapiens, UniProt P05771)
T5 construct: purchased Carna Biosciences
How it was run: as §1

BMX = target: T6, BMX (Homo sapiens, UniProt P51813)
T6 construct: purchased Carna Biosciences
How it was run: as §1

MRCKa = target: T7, MRCKa (Homo sapiens, UniProt Q5VT25)
T7 construct: purchased Carna Biosciences
How it was run: as §1

FGR = target: T8, FGR (Homo sapiens, UniProt P09769)
T8 construct: purchased Carna Biosciences
How it was run: (§2)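 10-pt curves; [ATP] ~Km; IC50 by 4PL fit of % inhibition.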

MAP3K2 = target: T9, MAP3K2 (Homo sapiens, UniProt Q9Y2U5)
T9 construct: purchased Carna Biosciences
How it was run: as §1

ROCK2 = target: T10, ROCK2 (Homo sapiens, UniProt O75116)
T10 construct: purchased Carna Biosciences
How it was run: as §1

NEK2 = target: T11, NEK2 (Homo sapiens, UniProt P51955)
T11 construct: purchased Carna Biosciences
How it was run: as §1

MARK3 = target: T12, MARK3 (Homo sapiens, UniProt P27448)
T12 construct: purchased Carna Biosciences
How it was run: as §1

NDR1 = target: T13, NDR1 (Homo sapiens, UniProt Q15208)
T13 construct: purchased Carna Biosciences
How it was run: as §1

PHKG2 = target: T14, PHKG2 (Homo sapiens, UniProt P15735)
T14 construct: purchased Carna Biosciences
How it was run: as §2

LTK = target: T15, LTK (Homo sapiens, UniProt P29376)
T15 construct: purchased Carna Biosciences
How it was run: as §1

EphA4 = target: T16, EphA4 (Homo sapiens, UniProt P54764)
T16 construct: purchased Carna Biosciences
How it was run: as §1

RSK3 = target: T17, RSK3 (Homo sapiens, UniProt Q15349)
T17 construct: purchased Carna Biosciences
How it was run: as §1

INSR = target: T18, INSR (Homo sapiens, UniProt P06213)
T18 construct: purchased Carna Biosciences
How it was run: as §1

BRAF[V600E] = target: T19, BRAF[V600E] (Homo sapiens, UniProt P15056, V600E)
T19 construct: purchased Carna Biosciences
How it was run: as §1

PKCd = target: T20, PKCd (Homo sapiens, UniProt Q05655)
T20 construct: purchased Carna Biosciences
How it was run: as §1

HER4 = target: T21, HER4 (Homo sapiens, UniProt Q15303)
T21 construct: purchased Carna Biosciences
How it was run: as §1

p70S6K = target: T22, p70S6K (Homo sapiens, UniProt P23443)
T22 construct: purchased Carna Biosciences
How it was run: as §1

CaMK1d = target: T23, CaMK1d (Homo sapiens, UniProt Q8IU85)
T23 construct: purchased Carna Biosciences
How it was run: as §1

CTK = target: T24, CTK (Homo sapiens, UniProt P42679)
T24 construct: purchased Carna Biosciences
How it was run: as §1

p38g = target: T25, p38g (Homo sapiens, UniProt P53778)
T25 construct: purchased Carna Biosciences
How it was run: as §1

JAK1 = target: T26, JAK1 (Homo sapiens, UniProt P23458)
T26 construct: purchased Carna Biosciences
How it was run: as §1

DDR2 = target: T27, DDR2 (Homo sapiens, UniProt Q16832)
T27 construct: purchased Carna Biosciences
How it was run: as §1

JAK2 = target: T28, JAK2 (Homo sapiens, UniProt O60674)
T28 construct: purchased Carna Biosciences
How it was run: as §1

MAP2K5 = target: T29, MAP2K5 (Homo sapiens, UniProt Q13163)
T29 construct: purchased Carna Biosciences
How it was run: as §2

TYK2 = target: T30, TYK2 (Homo sapiens, UniProt P29597)
T30 construct: purchased Carna Biosciences
How it was run: as §1

RSK4 = target: T31, RSK4 (Homo sapiens, UniProt Q9UK32)
T31 construct: purchased Carna Biosciences
How it was run: as §1

PKCq = target: T32, PKCq (Homo sapiens, UniProt Q04759)
T32 construct: purchased Carna Biosciences
How it was run: as §1

JNK1 = target: T33, JNK1 (Homo sapiens, UniProt P45983)
T33 construct: purchased Carna Biosciences
How it was run: as §1

FGFR3[K650M] = target: T34, FGFR3[K650M] (Homo sapiens, UniProt P22607, K650M)
T34 construct: purchased Carna Biosciences
How it was run: as §2

SYK = target: T35, SYK (Homo sapiens, UniProt P43405)
T35 construct: purchased Carna Biosciences
How it was run: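 Ten-point dose-response, ATP ≈ Km. % inhibition vs concentration → 4-parameter logistic fit → IC50.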

SRM = target: T36, SRM (Homo sapiens, UniProt Q9H3Y6)
T36 construct: purchased Carna Biosciences
How it was run: as §1

DCAMKL2 = target: T37, DCAMKL2 (Homo sapiens, UniProt Q8N568)
T37 construct: purchased Carna Biosciences
How it was run: as §1

AKT3 = target: T38, AKT3 (Homo sapiens, UniProt Q9Y243)
T38 construct: purchased Carna Biosciences
How it was run: as §1

BMPR1A = target: T39, BMPR1A (Homo sapiens, UniProt P36894)
T39 construct: purchased Carna Biosciences
How it was run: as §1

TSSK1 = target: T40, TSSK1 (Homo sapiens, UniProt Q9BXA7)
T40 construct: purchased Carna Biosciences
How it was run: as §1

RAF1 = target: T41, RAF1 (Homo sapiens, UniProt P04049)
T41 construct: purchased Carna Biosciences
How it was run: as §1

PKCh = target: T42, PKCh (Homo sapiens, UniProt P24723)
T42 construct: purchased Carna Biosciences
How it was run: as §1

BRSK1 = target: T43, BRSK1 (Homo sapiens, UniProt Q8TDC3)
T43 construct: purchased Carna Biosciences
How it was run: as §1

T3 sequence (P07947 whole entry): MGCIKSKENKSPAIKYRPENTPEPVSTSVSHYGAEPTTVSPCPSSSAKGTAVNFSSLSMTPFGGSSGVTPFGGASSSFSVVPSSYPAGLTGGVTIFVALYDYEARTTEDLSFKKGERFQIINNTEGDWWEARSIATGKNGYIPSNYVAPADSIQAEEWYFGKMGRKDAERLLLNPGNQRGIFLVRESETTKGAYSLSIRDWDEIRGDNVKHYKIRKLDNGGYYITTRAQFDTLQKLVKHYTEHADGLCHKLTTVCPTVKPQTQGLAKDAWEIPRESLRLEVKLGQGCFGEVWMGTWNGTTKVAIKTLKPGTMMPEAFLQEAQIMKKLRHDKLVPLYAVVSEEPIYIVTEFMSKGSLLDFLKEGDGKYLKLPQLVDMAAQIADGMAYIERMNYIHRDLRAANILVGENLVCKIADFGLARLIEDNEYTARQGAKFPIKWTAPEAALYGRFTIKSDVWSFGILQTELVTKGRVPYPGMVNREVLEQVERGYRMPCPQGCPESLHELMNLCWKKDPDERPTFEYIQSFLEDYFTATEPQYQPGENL
T5 sequence (P05771 whole entry): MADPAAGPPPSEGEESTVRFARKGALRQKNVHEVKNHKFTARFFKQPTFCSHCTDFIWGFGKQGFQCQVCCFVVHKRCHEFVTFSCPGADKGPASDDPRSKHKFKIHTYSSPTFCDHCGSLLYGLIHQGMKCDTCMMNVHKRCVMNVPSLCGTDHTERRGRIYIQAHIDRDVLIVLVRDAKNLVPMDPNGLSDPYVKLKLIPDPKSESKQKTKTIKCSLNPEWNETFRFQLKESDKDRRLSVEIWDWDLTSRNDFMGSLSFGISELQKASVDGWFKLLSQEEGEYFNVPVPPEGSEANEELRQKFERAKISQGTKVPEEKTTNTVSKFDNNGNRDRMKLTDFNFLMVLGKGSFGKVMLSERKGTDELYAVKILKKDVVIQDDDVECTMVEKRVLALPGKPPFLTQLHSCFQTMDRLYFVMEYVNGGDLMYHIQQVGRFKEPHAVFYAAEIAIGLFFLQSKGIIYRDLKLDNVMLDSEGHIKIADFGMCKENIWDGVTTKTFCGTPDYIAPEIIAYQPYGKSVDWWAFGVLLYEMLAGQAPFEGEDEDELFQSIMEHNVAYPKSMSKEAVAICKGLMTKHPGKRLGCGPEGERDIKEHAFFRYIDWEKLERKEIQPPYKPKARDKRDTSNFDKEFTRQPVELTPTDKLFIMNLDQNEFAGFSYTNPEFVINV
T16 sequence (P54764 20-986): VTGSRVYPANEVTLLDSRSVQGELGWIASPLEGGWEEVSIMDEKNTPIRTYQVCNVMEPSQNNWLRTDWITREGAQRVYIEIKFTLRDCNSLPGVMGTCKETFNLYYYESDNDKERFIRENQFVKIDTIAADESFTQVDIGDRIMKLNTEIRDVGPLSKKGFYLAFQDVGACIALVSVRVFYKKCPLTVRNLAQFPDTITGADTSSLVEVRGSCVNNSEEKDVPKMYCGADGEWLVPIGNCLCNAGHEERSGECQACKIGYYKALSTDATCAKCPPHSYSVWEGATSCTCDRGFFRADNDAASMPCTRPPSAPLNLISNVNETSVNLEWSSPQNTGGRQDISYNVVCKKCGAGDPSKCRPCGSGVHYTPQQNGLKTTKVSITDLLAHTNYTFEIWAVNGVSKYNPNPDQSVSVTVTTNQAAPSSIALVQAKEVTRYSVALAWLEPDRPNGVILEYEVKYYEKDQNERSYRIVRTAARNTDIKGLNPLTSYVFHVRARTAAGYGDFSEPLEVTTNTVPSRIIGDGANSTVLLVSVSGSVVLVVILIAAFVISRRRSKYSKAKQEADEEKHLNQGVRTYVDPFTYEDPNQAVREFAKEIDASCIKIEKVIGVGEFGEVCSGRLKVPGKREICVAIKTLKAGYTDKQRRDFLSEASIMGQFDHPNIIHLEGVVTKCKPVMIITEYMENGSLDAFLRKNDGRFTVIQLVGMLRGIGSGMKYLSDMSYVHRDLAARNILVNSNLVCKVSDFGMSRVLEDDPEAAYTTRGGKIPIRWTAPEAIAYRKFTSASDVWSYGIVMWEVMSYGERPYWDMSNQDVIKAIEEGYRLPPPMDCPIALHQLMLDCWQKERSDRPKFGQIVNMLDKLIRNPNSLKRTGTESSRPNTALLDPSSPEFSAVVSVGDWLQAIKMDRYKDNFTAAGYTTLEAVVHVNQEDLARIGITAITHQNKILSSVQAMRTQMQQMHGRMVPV
T7 sequence (Q5VT25 whole entry): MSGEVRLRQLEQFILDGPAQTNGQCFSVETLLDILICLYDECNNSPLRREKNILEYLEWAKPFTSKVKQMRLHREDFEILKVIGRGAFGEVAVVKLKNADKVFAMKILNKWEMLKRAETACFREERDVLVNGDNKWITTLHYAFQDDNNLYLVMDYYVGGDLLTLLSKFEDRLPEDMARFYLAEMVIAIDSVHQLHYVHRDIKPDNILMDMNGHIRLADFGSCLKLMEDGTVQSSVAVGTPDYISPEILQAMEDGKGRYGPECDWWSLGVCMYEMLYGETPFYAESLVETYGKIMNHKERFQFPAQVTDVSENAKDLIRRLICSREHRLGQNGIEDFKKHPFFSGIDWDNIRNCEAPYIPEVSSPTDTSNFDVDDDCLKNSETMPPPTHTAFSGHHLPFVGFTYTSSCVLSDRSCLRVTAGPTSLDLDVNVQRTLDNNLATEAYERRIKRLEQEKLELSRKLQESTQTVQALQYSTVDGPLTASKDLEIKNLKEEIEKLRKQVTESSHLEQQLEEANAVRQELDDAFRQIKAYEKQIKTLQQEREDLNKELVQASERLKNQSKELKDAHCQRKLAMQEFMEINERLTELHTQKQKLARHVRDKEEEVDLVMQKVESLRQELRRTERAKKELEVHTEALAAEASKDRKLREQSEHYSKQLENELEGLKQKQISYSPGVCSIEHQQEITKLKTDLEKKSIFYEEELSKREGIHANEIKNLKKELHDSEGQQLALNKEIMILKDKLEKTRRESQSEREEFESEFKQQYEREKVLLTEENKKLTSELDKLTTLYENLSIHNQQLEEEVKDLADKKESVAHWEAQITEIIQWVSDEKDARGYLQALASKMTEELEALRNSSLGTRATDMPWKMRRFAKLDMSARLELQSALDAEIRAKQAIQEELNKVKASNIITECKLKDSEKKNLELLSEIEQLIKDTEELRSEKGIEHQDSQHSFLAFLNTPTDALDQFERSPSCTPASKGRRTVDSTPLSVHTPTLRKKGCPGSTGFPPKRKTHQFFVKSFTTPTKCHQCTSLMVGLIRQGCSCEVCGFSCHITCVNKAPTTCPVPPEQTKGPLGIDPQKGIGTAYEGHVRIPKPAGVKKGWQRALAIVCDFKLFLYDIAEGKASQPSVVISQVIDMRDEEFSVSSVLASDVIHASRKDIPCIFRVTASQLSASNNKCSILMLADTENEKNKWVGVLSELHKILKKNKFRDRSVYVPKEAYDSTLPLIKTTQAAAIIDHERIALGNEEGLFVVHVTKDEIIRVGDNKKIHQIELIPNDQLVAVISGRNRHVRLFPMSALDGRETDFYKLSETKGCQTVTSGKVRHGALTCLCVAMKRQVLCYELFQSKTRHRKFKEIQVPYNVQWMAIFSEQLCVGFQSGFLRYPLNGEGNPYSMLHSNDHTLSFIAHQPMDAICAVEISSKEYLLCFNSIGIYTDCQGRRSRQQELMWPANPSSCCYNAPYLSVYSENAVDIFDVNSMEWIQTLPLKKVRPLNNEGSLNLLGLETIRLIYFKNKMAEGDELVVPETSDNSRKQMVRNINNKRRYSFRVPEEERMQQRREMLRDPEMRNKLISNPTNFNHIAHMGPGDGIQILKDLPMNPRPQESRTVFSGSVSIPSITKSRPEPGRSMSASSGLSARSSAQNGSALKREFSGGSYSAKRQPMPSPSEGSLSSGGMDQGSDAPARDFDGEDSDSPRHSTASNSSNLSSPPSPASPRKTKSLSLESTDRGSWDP
T24 sequence (P42679 whole entry): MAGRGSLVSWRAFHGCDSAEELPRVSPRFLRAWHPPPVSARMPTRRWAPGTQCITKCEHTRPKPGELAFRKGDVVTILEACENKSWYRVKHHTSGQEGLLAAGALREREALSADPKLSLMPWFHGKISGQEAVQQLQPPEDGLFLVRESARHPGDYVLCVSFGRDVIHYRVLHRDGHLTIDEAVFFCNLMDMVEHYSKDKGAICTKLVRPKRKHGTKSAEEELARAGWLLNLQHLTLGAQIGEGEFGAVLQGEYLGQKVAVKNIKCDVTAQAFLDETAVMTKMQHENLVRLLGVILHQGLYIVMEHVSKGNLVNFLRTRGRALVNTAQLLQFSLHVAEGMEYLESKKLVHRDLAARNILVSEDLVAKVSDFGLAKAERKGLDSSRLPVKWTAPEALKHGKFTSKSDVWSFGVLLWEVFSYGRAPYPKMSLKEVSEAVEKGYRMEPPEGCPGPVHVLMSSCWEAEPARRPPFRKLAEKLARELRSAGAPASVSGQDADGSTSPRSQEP
T9 sequence (Q9Y2U5 whole entry): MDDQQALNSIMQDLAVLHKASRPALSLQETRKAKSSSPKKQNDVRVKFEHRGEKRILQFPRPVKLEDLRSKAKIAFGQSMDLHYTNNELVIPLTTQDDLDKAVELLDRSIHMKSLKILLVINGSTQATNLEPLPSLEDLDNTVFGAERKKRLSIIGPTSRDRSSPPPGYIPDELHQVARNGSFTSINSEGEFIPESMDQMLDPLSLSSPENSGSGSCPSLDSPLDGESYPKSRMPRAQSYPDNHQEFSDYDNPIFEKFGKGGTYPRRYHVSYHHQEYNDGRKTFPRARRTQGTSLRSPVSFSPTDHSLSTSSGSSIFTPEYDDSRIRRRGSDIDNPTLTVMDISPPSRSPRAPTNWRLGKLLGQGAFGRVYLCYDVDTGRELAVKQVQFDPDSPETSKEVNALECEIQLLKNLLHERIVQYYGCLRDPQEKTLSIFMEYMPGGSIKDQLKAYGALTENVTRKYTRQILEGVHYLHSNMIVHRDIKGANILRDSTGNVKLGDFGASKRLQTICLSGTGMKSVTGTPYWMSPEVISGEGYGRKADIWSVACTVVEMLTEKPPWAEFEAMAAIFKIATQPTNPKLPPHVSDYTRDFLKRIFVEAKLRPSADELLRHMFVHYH

With `CC[C@H](Nc1nc(NCc2cnc(C)cc2C)c2ncn(C(C)C)c2n1)[C@@H](C)O` [Fadraciclib, 2-pentanol, 3-[[6-[[(4,6-dimethyl-3-pyridinyl)methyl]amino]-9-(1-methylethyl)-9Hpurin-2-yl]amino]-, (2R,3S)] the inhibition at 1 µM (MLK1) was -11.2 ± 0.1%, the inhibition at 1 µM (FLT1) was 1.9% and the inhibition at 1 µM (YES) was -7 ± 0.1%. The inhibition at 1 µM (TAK1) was 0.3%, the inhibition at 1 µM (PKCb1) was -1.9% and the inhibition at 1 µM (BMX) was 6.6 ± 0.3%. The inhibition at 1 µM (MRCKa) was -14.8 ± 0.1%, the inhibition at 1 µM (FGR) was 3.3 ± 0.1% and the inhibition at 1 µM (MAP3K2) was -14.7 ± 0.8%. It also gave an inhibition at 1 µM (ROCK2) of 4.2%, an inhibition at 1 µM (NEK2) of -18.1 ± 0.6% and an inhibition at 1 µM (MARK3) of -0.9 ± 0.1%. It also gave an inhibition at 1 µM (NDR1) of 2 ± 0.1%, an inhibition at 1 µM (PHKG2) of -10 ± 0.1% and an inhibition at 1 µM (LTK) of 6.6 ± 0.1%. For the same compound, the inhibition at 1 µM (EphA4) was 1%, the inhibition at 1 µM (RSK3) was 7.7% and the inhibition at 1 µM (INSR) was -12.2 ± 0.8%. For the same compound, the inhibition at 1 µM (BRAF[V600E]) was -1.9 ± 0.1%, the inhibition at 1 µM (PKCd) was 28.7 ± 2.7% and the inhibition at 1 µM (HER4) was -13 ± 0.3%. For the same compound, the inhibition at 1 µM (p70S6K) was 5.6 ± 0.2%, the inhibition at 1 µM (CaMK1d) was -14.5 ± 0.1% and the inhibition at 1 µM (CTK) was 3.4 ± 0.2%. It also gave an inhibition at 1 µM (p38g) of -0.6%, an inhibition at 1 µM (JAK1) of -3.1% and an inhibition at 1 µM (DDR2) of -9.9 ± 0.1%. The inhibition at 1 µM (JAK2) was 6.1 ± 0.2%, the inhibition at 1 µM (MAP2K5) was 11.9 ± 1.6% and the inhibition at 1 µM (TYK2) was -0.1%. The inhibition at 1 µM (RSK4) was 6 ± 0.2%, the inhibition at 1 µM (PKCq) was 0.7% and the inhibition at 1 µM (JNK1) was -13.5 ± 1.3%. For the same compound, the inhibition at 1 µM (FGFR3[K650M]) was 3.2 ± 0.1%, the inhibition at 1 µM (SYK) was 2.2 ± 0.1% and the inhibition at 1 µM (SRM) was 3.5 ± 0.1%. For the same compound, the inhibition at 1 µM (DCAMKL2) was -12.4 ± 0.1%, the inhibition at 1 µM (AKT3) was 2.4 ± 0.3% and the inhibition at 1 µM (BMPR1A) was 2.2%. It also gave an inhibition at 1 µM (TSSK1) of 16 ± 0.5%, an inhibition at 1 µM (RAF1) of -1.1 ± 0.1% and an inhibition at 1 µM (PKCh) of -6.1 ± 0.1%. The inhibition at 1 µM (BRSK1) was -11.5 ± 0.1%.
